Test results taken from patent publication EP0883624B1, “TETRAETHER LIPIDS AND LIPOSOMES CONTAINING SAID LIPIDS, AND USE OF THE SAME” (Humatrix AG, priority 1996, dated 1997).

Assay: Capacitance of a black lipid membrane
Assay type: physicochemical
Details: Porengröße von 0,8 mm
Text: Das Überspannen von Poren mit einer Lipidschicht ermöglicht nicht nur Einsatz solcher Systeme bei Separations- und Transportvorgängen (Dialyse, Umkehrosmose etc.), sondern auch im Bereich von Piezo- und Pyroelektrik, Mikrokondensatortechnik, nicht-linearer Optik und Biosensorik. Die Kapazität einer stabilen Black-Lipid-Membran aus TEL ist bei einer Porengröße von 0,8 mm 0,744 µF/cm^2.

**Q.** For “2,3,2',3'-Tetra-O-dibiphytanyl-di-sn-glycerol-1'-β-gulosyl-1-phosphoryl-3"-sn-glycerols [TEL]”, which “Kapazität einer stabilen Black-Lipid-Membran” value is on record?
**A.** 0,744 µF/cm^2
